Source: ChEMBL document CHEMBL4739717, “Methods of treating cartilage disorders through inhibition of clk and dyrk” (2020)

What was measured:
[1] = biological target: Dual specificity tyrosine-phosphorylation-regulated kinase 1A (Homo sapiens, UniProt Q13627); assay: Inhibition of recombinant DYRK1A (unknown origin) using Ser/Thr 18 peptide as substrate incubated for 1 hr in presence of ATP by FRET assay
[2] = Effect on Wnt signaling pathway in human SW480 cells harbouring TCF/LEF luciferase reporter gene and SP5-Luc reporter gene incubated for 36 to 48 hrs by luminescence assay; assay type: cell-based
[3] = Inhibition of IL1-beta induced MMP3 expression levels in human chondrocytes assessed as MMP3 levels incubated for 2hrs followed by IL1-beta stimulation and measured after overnight incubation by LANCE assay; assay type: functional, cell-based; conditions: Chondrocyte
[4] = Inhibition of IL1-beta induced MMP3 expression levels in human chondrocytes assessed as MMP3 levels incubated for 2hrs followed by IL1-beta stimulation and measured after overnight incubation by LANCE assay relative to control; assay type: functional, Chondrocyte
[5] = Induction of chondrogenesis in human MSC assessed as maximum activity at 300 nM incubated for 6 days by rhodamine B and Nile red staining based imaging analysis relative to control; assay type: functional; conditions: BMMSC, 144 h, time 6 day
[6] = biological target: Dual specificity protein kinase CLK3 (Homo sapiens, UniProt P49761); assay: Inhibition of recombinant CLK3 (unknown origin) using Ser/Thr 18 peptide as substrate incubated for 1 hr in presence of ATP by FRET assay
Chain of Dual specificity protein kinase CLK3 (P49761 whole entry): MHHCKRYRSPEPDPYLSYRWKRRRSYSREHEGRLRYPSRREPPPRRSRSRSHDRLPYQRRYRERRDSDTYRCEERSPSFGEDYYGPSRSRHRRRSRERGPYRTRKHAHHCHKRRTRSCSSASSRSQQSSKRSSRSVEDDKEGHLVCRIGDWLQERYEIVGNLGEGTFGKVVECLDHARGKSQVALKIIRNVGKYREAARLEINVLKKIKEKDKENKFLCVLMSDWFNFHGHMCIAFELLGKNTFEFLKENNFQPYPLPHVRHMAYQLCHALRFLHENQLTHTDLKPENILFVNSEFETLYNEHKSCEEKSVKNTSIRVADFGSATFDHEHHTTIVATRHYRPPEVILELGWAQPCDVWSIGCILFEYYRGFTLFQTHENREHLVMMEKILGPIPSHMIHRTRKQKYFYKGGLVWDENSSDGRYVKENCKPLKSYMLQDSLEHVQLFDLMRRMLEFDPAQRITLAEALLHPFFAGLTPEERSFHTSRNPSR

[7] = Induction of chondrogenesis in human MSC assessed as incubated for 6 days by rhodamine B and Nile red staining based imaging analysis; assay type: functional; conditions: bmmsc
[8] = Induction of chondrogenesis in human MSC assessed as maximum activity at 100 nM incubated for 6 days by rhodamine B and Nile red staining based imaging analysis relative to control; assay type: functional; conditions: BMMSC, 144 h, time 6 day
[9] = Induction of chondrogenesis in human MSC assessed as maximum activity at 30 nM incubated for 6 days by rhodamine B and Nile red staining based imaging analysis relative to control; assay type: functional; conditions: BMMSC, 144 h, time 6 day

SMILES | EC50 [1] [nM] | EC50 [2] [nM] | EC50 [3] [nM] | EC50 [6] [nM] | EC50 [7] [nM] | Imax [4] [%] | Emax at 0.3 µM [5] [%] | Emax at 0.1 µM [8] [%] | Emax at 0.03 µM [9] [%]
O=C(Nc1ccc(CN2CCCC2)cc1)c1n[nH]c2ccc(-c3cnn(C4CC4)c3)cc12 | 4 | 451 | 3000 | – | – | 57 | – | – | –
O=C(Nc1ccc(C(=O)N2CCCC2)nc1)c1n[nH]c2ccc(-c3cncc(CN4CCCCC4)c3)cc12 | 1 | 30 | 3000 | – | – | 100 | – | – | –
Cn1ncc(-c2ccc3cnc(NC(=O)c4ccnc(N5CCOCC5)c4)cc3c2)c1CN1CCOCC1 | – | – | 3000 | – | – | 70 | – | – | –
CN(C)C1CN(c2ncc(C(=O)Nc3cc4cc(-c5cnn(C)c5)ccc4cn3)s2)C1 | – | 1320 | 71.4 | – | – | 0 | – | – | –
O=C(Nc1c[nH]nc1C(=O)Nc1ccc(N2CCCC2)nc1)c1cncc(OC2CCNCC2)c1 | 9 | 2.5 | 3000 | – | – | 80 | – | – | –
O=C(Nc1c[nH]nc1C(=O)Nc1cncc(-c2cccc(F)c2)c1)c1cncc(F)c1 | 63 | 479 | 0.4 | > 10000 | – | – | – | 81.5 | –
c1cc(-c2ccnc3[nH]c(-c4n[nH]c5ccc(-c6cncc(CNCC7CCCC7)c6)nc45)cc23)ccn1 | 40 | > 10000 | – | > 10000 | 100 | – | – | 67.2 | –
c1cnc2cc(-c3n[nH]c4ccc(-c5cncc(CN6CCCCC6)c5)cc34)[nH]c2c1 | 5 | 165 | 319 | – | – | 100 | – | – | –
CN1CCC(Oc2ccc3[nH]c(-c4n[nH]c5ccc(-c6cnn(C)c6)cc45)nc3c2)CC1 | 2 | 18.3 | 170 | – | – | 100 | – | – | –
CN1CCN(c2ccnc3[nH]c(-c4n[nH]c5ccc(-c6cn[nH]c6)nc45)cc23)CC1 | 49 | > 10000 | – | > 10000 | 300 | – | 60.1 | – | –
NC(=O)c1ccc(NC(=O)c2n[nH]c3ccc(-c4cncc(CN5CCCCC5)c4)cc23)cn1 | 1 | 13 | 2220 | – | – | 100 | – | – | –
O=C(Nc1cc2cc(-c3cncc(CN4CCC(O)CC4)c3)ccc2cn1)c1ccc(F)cc1 | – | 382 | 2.9 | – | – | 3.7 | – | – | –
Cc1n[nH]c2ccc(-c3cncc(NCC4(F)CNC4)n3)cc12 | 11 | 780 | 2270 | – | – | 100 | – | – | –
CC(C)N1CCC(n2cc(C(=O)Nc3cc4cc(-c5cn(C)nn5)ccc4cn3)cn2)CC1 | – | 32.7 | 492 | – | – | 91 | – | – | –
CCCC(=O)Nc1cncc(-c2ccc3[nH]nc(-c4cc5c(-c6ccncc6)cncc5[nH]4)c3c2)c1 | 6 | > 10000 | – | 460 | 100 | – | – | 124 | –
O=C(Nc1c[nH]nc1C(=O)Nc1cccnc1)c1cccnc1 | 12 | 20.5 | 38.9 | – | – | 100 | – | – | –
CN1CCC(n2cc(NC(=O)c3n[nH]c4ccc(-c5cnn(C)c5)cc34)cn2)CC1 | 1 | 79 | 818 | – | – | 100 | – | – | –
CCCC(=O)Nc1cncc(-c2ccc3[nH]nc(-c4nc5c(N6CCCCC6)cncc5[nH]4)c3c2)c1 | 14 | 42 | 20.5 | – | – | 39 | – | – | 77.3
Cn1cc(-c2ccc3cnc(NC(=O)c4ccnc(N5CC6CC5CN6)c4)cc3c2)cn1 (stereo not drawn) | – | – | 3000 | – | – | 69 | – | – | –

Second part, led by results:

EC50 [1] [nM] | EC50 [2] [nM] | EC50 [3] [nM] | EC50 [6] [nM] | EC50 [7] [nM] | SMILES | Imax [4] [%] | Emax at 0.3 µM [5] [%] | Emax at 0.1 µM [8] [%] | Emax at 0.03 µM [9] [%]
2 | 230 | 1160 | – | – | CN1CCC(Nc2ccc(NC(=O)c3n[nH]c4cc(F)c(-c5cnn(C)c5)cc34)cn2)CC1 | 100 | – | – | –
8 | > 10000 | – | > 10000 | 300 | Cn1cc(-c2cnc3[nH]nc(-c4cc5cccnc5[nH]4)c3c2)cn1 | – | 51.7 | – | –
66 | > 10000 | – | > 10000 | 300 | Cc1ccncc1-c1ccc2[nH]nc(-c3cc4c(-c5ccncc5)ccnc4[nH]3)c2n1 | – | 56.5 | – | –
68 | > 10000 | – | > 10000 | – | c1cc(-c2ccnc3[nH]c(-c4n[nH]c5ccc(-c6cncnc6)cc45)cc23)ccn1 | – | – | 17.3 | –
2 | 471 | 3000 | – | – | CO[C@H]1CC[C@H](C(=O)Nc2cc3cc(-c4cnn(C)c4CN4CCCCC4)ccc3cn2)CC1 | 0.2 | – | – | –
– | – | 154 | – | – | Cn1cc(-c2ccc3cnc(NC(=O)c4ccnc(OC5CNC5)c4)cc3c2)cn1 | 100 | – | – | –
4 | 2.9 | 76.5 | – | – | O=C(Nc1c[nH]nc1-c1nc2c(-c3cccc(F)c3)cccc2[nH]1)c1cccnc1 | 100 | – | – | –
5 | 85.4 | 1100 | – | – | CC(C)(C)C(=O)Nc1cncc(-c2ccc3[nH]nc(-c4nc5c(-c6cccnc6)cncc5[nH]4)c3c2)c1 | 100 | – | – | –
3 | 706 | 35 | – | – | Cn1ncc(-c2ccc3cnc(NC(=O)C4CCN(C(=O)c5ccccc5)CC4)cc3c2)c1CN1CCCCC1 | 51 | – | – | –
2 | 210 | 616 | – | – | O=C(Nc1cccnc1)c1n[nH]c2ccc(-c3cncc(CN4CCS(=O)(=O)CC4)c3)cc12 | 8.6 | – | – | –
43 | 3000 | – | > 10000 | 900 | CN(C)CCOc1cncc(-c2cc3c(-c4cc5c(-c6ccc(F)cc6)nccc5[nH]4)n[nH]c3cn2)c1 | – | 113 | – | –
28 | > 10000 | – | > 10000 | – | c1cc(-c2ccnc3[nH]c(-c4n[nH]c5ccc(-c6cncc(OCCN7CCCC7)c6)nc45)cc23)ccn1 | – | 39.6 | – | –
8 | 470 | 3000 | – | – | Fc1ccc(-c2cncc3[nH]c(-c4n[nH]c5cnc(-c6cncc(CN7CCCC7)c6)cc45)nc23)s1 | 81 | – | – | –
8 | 613 | 342 | – | – | COc1cncc(C(=O)Nc2c[nH]nc2C(=O)Nc2ccc3c(c2)CCNC3)c1 | 76 | – | – | –
2 | 23 | 13.6 | – | – | c1cncc(-c2ccc3[nH]nc(-c4nc5c(N6CCOCC6)cncc5[nH]4)c3c2)c1 | 100 | – | – | 90.4
12 | 58 | – | > 10000 | 100 | c1cc(-c2cncc3[nH]c(-c4n[nH]c5ccc(-c6cncc(CNCC7CCCC7)c6)cc45)nc23)cs1 | – | – | 167 | –
10 | 662 | 3000 | – | – | O=C(Nc1c[nH]nc1C(=O)Nc1ccc(N2CCCCC2)nc1)c1cncc(OC2CCNCC2)c1 | 71 | – | – | –
3 | > 10000 | – | > 10000 | 10 | Nc1cncc(-c2cc3c(-c4cc5c(-c6ccncc6)cncc5[nH]4)n[nH]c3cn2)c1 | – | – | – | 52
– | – | 423 | – | – | CN1CCN(c2cc(C(=O)Nc3cc4cc(-c5cncs5)ccc4cn3)ccn2)CC1 | 100 | – | – | 22.3
